Key:
[1] = Metabolic effects in HFD obese mice; format: in vivo, mouse
Experimental: All animal experiments were carried out in accordance with the protocols approved by the Institutional Animal Care and Use Committee of the City of Hope. Nine-week old male C57BL/6J mice fed on high fat diet (HFD, 60% fat) and 10-week old db/db mice were given COH-SR4 (5 mg/kg B.W.) or vehicle (corn oil) via oral gavage every other day for six and five weeks, respectively. Oral glucose tolerance test was performed on animals after an overnight fast. All other metabolic parameters were measured at the end of study. Liver samples were stained with H&E and Oil Red O.
All data represented are mean±SEM. *P<0.05, **P<0.01 vs. LFD or db/+; ^#P<0.05, ^##P<0.01 vs. HFD or db/db. n=12 animals per group for HFD mice. LFD=low fat diet (lean), HFD=high fat diet (obese). n=8 animals per group for db/db mice.
Representative mice in each treatment group (LFD, HFD, and HFD treated with COH-SR4 (HFD+SR4)) depicted gross images of whole body shape (top) and abdominal fat (bottom) (FIG. 85A).

B16 mouse melanoma tumor = assay: Histopathology (IHC) of B16 melanoma tumor sections; format: in vivo; details: treated vs control tumors
Experimental: B16 melanoma bearing C57B mice tumor sections were treated without or with COH-SR4, and used for histopathologic analyses.
H&E stain, or hematoxylin and eosin stain, a general gross morphology stain were used. […] Eosin was pink and stained proteins nonspecifically. In a typical tissue, nuclei were stained blue, whereas the cytoplasm and extracellular matrix had varying degrees of pink staining. The pink coloration in the control tumor cells indicated cell proliferation (FIG. 57)
IHC analyses for Ki-67 expression (marker of cellular proliferation), CD31 (angiogenesis marker), and pAMPK (cellular regulator of lipid and glucose metabolism) from tumors in mice of control and COH-SR4-treated groups were carried out. Statistical significance of difference was determined by two-tailed Student's t test. When COH-SR4-treated tumor sections were compared with the control, p<0.001. […] Sections were counterstained with Hematoxylin (blue). Photomicrographs at 40× magnification were acquired using Olympus Provis AX70 microscope. Percent staining was determined by measuring positive immuno-reactivity per unit area. Arrows indicated the areas for positive staining for an antigen. The intensity of antigen staining was quantified by digital image analysis. Bars represented mean+S.E. (n=5); “*” means p<0.001 compared with control.

[2] = system: mouse C2C12, HepG2, and 3T3-L1 cells; assay: Oxygen consumption rate in myotubes, liver cells, adipocytes; format: cell-based
Experimental: Oxygen consumption rate (OCR), a measure of OxPhos, and extracellular acidification rate (ECAR), a measure of lactate production by glycolysis, were measured using a Seahorse Xf^e96 Flux Analyzers (Seahorse Biosciences, North Billerica, Mass.). Cells were seeded in DMEM media in Seahorse 96-well tissue culture plates at a density of 5×10^3 cells/well and allowed to adhere for 24 h. Prior to the assay, the media was changed to unbuffered DMEM containing 25 mM glucose, 1 mM pyruvate and 1 mM glutamine, with 0.2% fatty acid/endotoxin-free BSA (w/v) (pH 7.4) and the cells were equilibrated for 30 min at 37° C. Test compounds were injected during the assay and OCR and ECAR were measured using 2-3 min measurement periods. Similar sets of experiments were performed in the presence of the mitochondria recoupler agent 6-KCH or the mitochondrial permeability transition (MPT) pore blocker CSA, where each compound was injected into the assay media prior to COH-SR4 or FCCP injection. In separate experiments with A2058 and A2058 p° cells, a modified Mitostress test was performed accordingly per Seahorse protocols (89, 90). […] OCR was measured throughout the different injections of the stressors and test compounds (indicated by arrows in the figures). […]

With `O=C(Nc1cc(Cl)cc(Cl)c1)Nc1cc(Cl)cc(Cl)c1` [COH-SR4, 1,3-bis(3,5-dichlorophenyl) urea] the body weight ([1]; 5 mg/kg oral every other day, six weeks) was “decreased body weight”, the glucose tolerance ([1]; six weeks) was “improved glucose tolerance” and the “hepatic lipid accumulation (Oil Red O, H&E)” value ([1]; six weeks) was “little hepatic lipid accumulation”. For the same compound, the plasma insulin concentration ([1]; six weeks) was “lower plasma insulin concentration”, the plasma lipids ([1]; six weeks) was “significantly reduced plasma lipids” and the food intake ([1]; vs control HFD mice) was “No significant difference in food intake”. The “CD31 (angiogenesis marker)” value (B16 mouse melanoma tumor) was “decreased CD31”, the “Ki-67 expression (cellular proliferation)” value (B16 mouse melanoma tumor) was “decreased Ki67” and the pAMPK (B16 mouse melanoma tumor) was “increased pAMPK”. The OCR [2] was “dose- and time dependently increased the OCR”.

Reference: US9808434B2, “Compound for treating cancer and diabetes” (CITY OF HOPE, priority 2011, dated 2017)
